From ChEMBL document CHEMBL5244223, “l,8-Naphthalimide based DNA intercalators and anticancer agents. A systematic review from 2007 to 2017” (Eur J Med Chem, 2018)
pIC50: −log10 of the molar value.

Legend:
Clupea harengus = experiment: Binding affinity to Atlantic herring DNA assessed as binding constant by fluorescence based EtBr-UV absorption spectral analysis
Staphylococcus aureus [1] = experiment: Antibacterial activity against Staphylococcus aureus ATCC25923 assessed as inhibition of bacterial growth incubated for 24 hrs by two-fold serial dilution assay; format: functional
Staphylococcus aureus [2] = experiment: Antibacterial activity against methicillin-resistant Staphylococcus aureus N315 assessed as inhibition of bacterial growth incubated for 24 hrs by two-fold serial dilution assay; format: functional
Bacillus subtilis = experiment: Antibacterial activity against Bacillus subtilis ATCC6633 assessed as inhibition of bacterial growth incubated for 24 hrs by two-fold serial dilution assay; format: functional
Micrococcus luteus = experiment: Antibacterial activity against Micrococcus luteus assessed as inhibition of bacterial growth incubated for 24 hrs by two-fold serial dilution assay; format: functional
Proteus = experiment: Antibacterial activity against Proteus ATCC13315 assessed as inhibition of bacterial growth incubated for 24 hrs by two-fold serial dilution assay; format: functional
Escherichia coli = experiment: Antibacterial activity against Escherichia coli JM109 assessed as inhibition of bacterial growth incubated for 24 hrs by two-fold serial dilution assay; format: functional
Pseudomonas aeruginosa = experiment: Antibacterial activity against Pseudomonas aeruginosa assessed as inhibition of bacterial growth incubated for 24 hrs by two-fold serial dilution assay; format: functional
Salmonella typhi = experiment: Antibacterial activity against Salmonella enterica subsp. enterica serovar Typhi assessed as inhibition of bacterial growth incubated for 24 hrs by two-fold serial dilution assay; format: functional
HeLa = experiment: Cytotoxicity against human HeLa cells assessed as inhibition of cell growth by MTT assay; format: functional, cell-based
MCF7 [3] = experiment: Cytotoxicity against human MCF7 cells assessed as inhibition of cell growth by MTT assay; format: functional, cell-based
SGC-7901 = experiment: Cytotoxicity against human SGC-7901 cells assessed as inhibition of cell growth by MTT assay; format: functional, cell-based
A549 = experiment: Cytotoxicity against human A549 cells assessed as inhibition of cell growth by MTT assay; format: functional, cell-based
Calf thymus DNA [4] = experiment: Binding affinity to calf thymus DNA assessed as DNA intercalation by measuring binding constant by fluorescence spectroscopic assay; format: nucleic-acid assay; settings: Bos taurus
Jurkat = experiment: Antiproliferative activity against human Jurkat cells assessed as inhibition of cell proliferation incubated for 72 hrs by MTT assay; format: functional, cell-based
K562 = experiment: Cytotoxicity against human K562 cells assessed as inhibition of cell growth incubated for 48 hrs by MTT assay; format: functional, cell-based; settings: K562, 48 h
SMMC-7721 = experiment: Cytotoxicity against human SMMC-7721 cells assessed as inhibition of cell growth incubated for 48 hrs by MTT assay; format: functional, cell-based; settings: SMMC-7721, 48 h
HepG2 = experiment: Cytotoxicity against human HepG2 cells assessed as inhibition of cell growth incubated for 48 hrs by MTT assay; format: functional, cell-based; settings: HepG2, 48 h
HCT-116 [5] = experiment: Cytotoxicity against human HCT-116 cells assessed as inhibition of cell growth incubated for 48 hrs by MTT assay; format: functional, cell-based; settings: HCT-116, 48 h
HL-60 = experiment: Cytotoxicity against human HL-60 cells assessed as inhibition of cell growth incubated for 96 hrs by MTT assay; format: functional, cell-based; settings: HL-60, 96 h
U-937 = experiment: Cytotoxicity against human U-937 cells assessed as inhibition of cell growth incubated for 96 hrs by MTT assay; format: functional, cell-based; settings: U-937, 96 h
BGC-823 = experiment: Antiproliferative activity against human BGC-823 cells assessed as inhibition of cell proliferation incubated for 24 hrs by MTT assay; format: functional, cell-based; settings: BGC-823, 24 h
L02 = experiment: Antiproliferative activity against human HL7702 cells assessed as inhibition of cell proliferation incubated for 24 hrs by MTT assay; format: functional, cell-based; settings: L02, 24 h
MCF7 [6] = experiment: Antiproliferative activity against human MCF7 cells assessed as inhibition of cell proliferation incubated for 24 hrs by MTT assay; format: functional, cell-based; settings: MCF7, 24 h
Salmon testes DNA = experiment: Binding affinity to salmon Testis DNA assessed as equilibrium binding constant by steady-state fluorescence spectroscopic analysis; settings: Salmo salar
HCT-116 [7] = experiment: Cytotoxicity against human HCT-116 cells assessed as inhibition of cell growth incubated for 72 hrs by MTT assay; format: functional, cell-based; settings: HCT-116, 72 h
Calf thymus DNA [8] = experiment: Binding affinity to calf thymus DNA assessed as DNA intercalation by measuring change in melting temperature by thermal denaturation assay; format: nucleic-acid assay; settings: Bos taurus
Calf thymus DNA [9] = experiment: Binding affinity to calf thymus DNA assessed as binding constant by fluorescence based EtBr-displacement based UV-Vis spectroscopic analysis; format: nucleic-acid assay; settings: Bos taurus

NCCCNCCCCN1C(=O)c2cccc3cccc(c23)C1=O was tested, and the Kb (Clupea harengus) was 1.15 10^4/M.
O=C1c2cccc3c(Sc4nc5ccccc5n4Cc4cccc(F)c4)ccc(c23)C(=O)N1CCCCn1cncn1 was tested, and the MIC (Staphylococcus aureus [1]) was over 512 µg/mL, the MIC (Staphylococcus aureus [2]) was over 512 µg/mL and the MIC (Bacillus subtilis) was over 512 µg/mL. For the same compound, the MIC (Micrococcus luteus) was over 512 µg/mL, the MIC (Proteus) was over 512 µg/mL and the MIC (Escherichia coli) was over 512 µg/mL. It also gave an MIC (Pseudomonas aeruginosa) of over 512 µg/mL and an MIC (Salmonella typhi) of over 512 µg/mL.
CN(C)CCN1C(=O)c2cccc3c(N4CC[C@@H](O)C4)ccc(c23)C1=O was tested, and the pIC50 (HeLa) was 6.06, the pIC50 (MCF7 [3]) was 6.06 and the pIC50 (SGC-7901) was 6.06. For the same compound, the pIC50 (A549) was 6.06 and the Kb (Calf thymus DNA [4]) was 1.8 10^4/M.
O=C1c2cccc3c(Sc4nc5ccccc5n4Cc4ccc(Cl)cc4Cl)ccc(c23)C(=O)N1CCCCn1c[n+](Cc2ccccc2Cl)cn1 showed an MIC (Staphylococcus aureus [1]) of 2 µg/mL, an MIC (Staphylococcus aureus [2]) of 2 µg/mL and an MIC (Bacillus subtilis) of 2 µg/mL. The MIC (Micrococcus luteus) was 2 µg/mL, the MIC (Proteus) was 2 µg/mL and the MIC (Escherichia coli) was 2 µg/mL. For the same compound, the MIC (Pseudomonas aeruginosa) was 2 µg/mL and the MIC (Salmonella typhi) was 2 µg/mL.
With O=C1c2cccc3cccc(c23)C(=O)N1CCCCNCc1ccccn1 the pIC50 (Jurkat) was 5.25.
CCOC(=O)c1ccc2c3c(cccc13)C(=O)N(CCN(C)C)C2=O showed a pIC50 (K562) of 4.86, a pIC50 (SMMC-7721) of 4.86 and a pIC50 (HepG2) of 4.86. It also gave a pIC50 (HCT-116 [5]) of 4.86.
Compound O=C1c2cccc3c([N+](=O)[O-])ccc(c23)C(=O)N1CCCCl has a pIC50 (HL-60) of 6.52 and a pIC50 (U-937) of 6.52.
Work on O=C1c2cccc3c([N+](=O)[O-])ccc(c23)C(=O)N1CCCl yielded a pIC50 (HL-60) of 6.52 and a pIC50 (U-937) of 6.52.
Work on O=C1c2cccc3c2c(cc2[nH]c(-c4c[nH]c5ccccc45)nc23)C(=O)N1CCCO yielded a pIC50 (BGC-823) of 6.15, a pIC50 (L02) of 6.15 and a pIC50 (MCF7 [6]) of 6.15.
For O=C1c2cccc3c(Sc4nc5ccccc5n4Cc4ccc(F)cc4)ccc(c23)C(=O)N1CCCCn1cncn1, the MIC (Staphylococcus aureus [1]) was over 512 µg/mL, the MIC (Staphylococcus aureus [2]) was over 512 µg/mL and the MIC (Bacillus subtilis) was over 512 µg/mL. The MIC (Micrococcus luteus) was over 512 µg/mL, the MIC (Proteus) was over 512 µg/mL and the MIC (Escherichia coli) was over 512 µg/mL. The MIC (Pseudomonas aeruginosa) was over 512 µg/mL and the MIC (Salmonella typhi) was over 512 µg/mL.
In the case of Nc1ccc2c3c(cccc13)C(=O)N(CC[n+]1ccccc1)C2=O, the Kb (Salmon testes DNA) was 1.38 10^5/M.
Work on O=C1c2cccc3cccc(c23)C(=O)N1CCCNCCN(CCO)CCO yielded a pIC50 (HCT-116 [7]) of under 4.40.
In the case of O=C1c2cccc3c2c(cc2[nH]c(-c4c[nH]c5ccccc45)nc23)C(=O)N1Nc1ccccc1, the pIC50 (BGC-823) was 6.15, the pIC50 (L02) was 6.15 and the pIC50 (MCF7 [6]) was 6.15.
With CN(C)CCN1C(=O)c2cccc3c2c(cc2nccnc23)C1=O the pIC50 (HeLa) was 5.72 and the ΔTm (Calf thymus DNA [8]) was 3.9 °C.
For Nc1ccc2c3c(cccc13)C(=O)N(c1cccc(-c3cc[n+]4c(c3)-c3cccc[n+]3CC4)c1)C2=O, the K (Calf thymus DNA [9]) was 2.3 10^6/M.
With CN(C)CCNCCCN1C(=O)c2cccc3cccc(c23)C1=O the Kb (Clupea harengus) was 1.15 10^4/M.
CCCOC(=O)c1ccc2c3c(cccc13)C(=O)N(CCN(C)C)C2=O was tested, and the pIC50 (K562) was under 4.30, the pIC50 (SMMC-7721) was under 4.30 and the pIC50 (HepG2) was under 4.30. The pIC50 (HCT-116 [5]) was under 4.30.
For O=C1c2cccc3c2c(cc2[nH]c(-c4c[nH]c5ccccc45)nc23)C(=O)N1NCc1ccccc1, the pIC50 (BGC-823) was 6.15, the pIC50 (L02) was 6.15 and the pIC50 (MCF7 [6]) was 6.15.
O=C1c2cccc3c(Sc4nc5ccccc5n4Cc4ccc(F)cc4F)ccc(c23)C(=O)N1CCCCn1cncn1 showed an MIC (Staphylococcus aureus [1]) of over 512 µg/mL, an MIC (Staphylococcus aureus [2]) of over 512 µg/mL and an MIC (Bacillus subtilis) of over 512 µg/mL. The MIC (Micrococcus luteus) was over 512 µg/mL, the MIC (Proteus) was over 512 µg/mL and the MIC (Escherichia coli) was over 512 µg/mL. The MIC (Pseudomonas aeruginosa) was over 512 µg/mL and the MIC (Salmonella typhi) was over 512 µg/mL.
For O=C1c2cccc3cccc(c23)C(=O)N1CCCN(CCCN1C(=O)c2cccc3cccc(c23)C1=O)CCN(CCO)CCO, the pIC50 (HCT-116 [7]) was under 4.82.
In the case of NCCNCCCCN1C(=O)c2cccc3cccc(c23)C1=O, the Kb (Clupea harengus) was 1.15 10^4/M.
O=C1c2cccc3c([N+](=O)[O-])ccc(c23)C(=O)N1CCO showed a pIC50 (HL-60) of 6.15 and a pIC50 (U-937) of 6.15.
With NCCNCCCN1C(=O)c2cccc3cccc(c23)C1=O the Kb (Clupea harengus) was 1.15 10^4/M.
O=C1c2cccc3c(Sc4nc5ccccc5n4Cc4ccccc4Cl)ccc(c23)C(=O)N1CCCCn1cncn1 showed an MIC (Staphylococcus aureus [1]) of over 512 µg/mL, an MIC (Staphylococcus aureus [2]) of over 512 µg/mL and an MIC (Bacillus subtilis) of over 512 µg/mL. For the same compound, the MIC (Micrococcus luteus) was over 512 µg/mL, the MIC (Proteus) was over 512 µg/mL and the MIC (Escherichia coli) was over 512 µg/mL. It also gave an MIC (Pseudomonas aeruginosa) of over 512 µg/mL and an MIC (Salmonella typhi) of over 512 µg/mL.
With CCCCCOC(=O)c1ccc2c3c(cccc13)C(=O)N(CCN(C)C)C2=O the pIC50 (K562) was under 4.30, the pIC50 (SMMC-7721) was under 4.30 and the pIC50 (HepG2) was under 4.30. The pIC50 (HCT-116 [5]) was under 4.30.
